Assay results from ChEMBL document CHEMBL1158048, “19-Nor- and 18,20-epoxy-cardenolides from the leaves of Calotropis gigantea” (J Nat Prod, 2006).
Calls of active or inactive are those of the source. The calls are words filed in the database; no cut-off is given here.

Assays:
Plasmodium falciparum = test: Antimalarial activity after 48 hrs against multidrug-resistant Plasmodium falciparum K1; format: functional, organism-based
KB [1] = test: Cytotoxicity against human KB cells by SRB assay; format: functional, cell-based
[2] = Cytotoxicity against human BC cells by SRB assay; format: functional, cell-based
NCI-H187 [3] = test: Cytotoxicity against human NCI-H187 cells by SRB assay; format: functional, cell-based
KB [4] = test: Cytotoxicity against human KB cells at 20 ug/ml by SRB assay; format: functional, cell-based
NCI-H187 [5] = test: Cytotoxicity against human NCI-H187 cells at 20 ug/ml by SRB assay; format: functional, cell-based
BC = test: Cytotoxicity against human BC cells at 20 ug/ml by SRB assay; format: functional, cell-based

Compound | Activity (Plasmodium falciparum) | IC50 (KB [1]) [nM] | IC50 [2] [nM] | IC50 (NCI-H187 [3]) [nM] | Activity (KB [4]) | Activity (NCI-H187 [5]) | Activity (BC)
C[C@@H]1C[C@H](O)[C@]2(O)O[C@@H]3C[C@@]4(C=O)[C@@H](CC[C@@H]5[C@@H]4CC[C@]4(C)[C@@H](C6=CC(=O)OC6)CC[C@]54O)C[C@H]3O[C@@H]2O1 [CALOTROPIN] | inactive | 62 | 41.3 | 471 |  |  | 
COC(=O)[C@@]1(O)C[C@@H](C)O[C@H]1O[C@@H]1C[C@@H]2CC[C@@H]3[C@H](CC[C@]4(C)[C@@H](C5=CC(=O)OC5)CC[C@]34O)[C@@]2(C=O)C[C@H]1O [CALACTINICACID METHYL ESTER] |  | 3730 | 5650 | 14400 |  |  | 
COc1cccc2c1C(=O)c1c(O)c3c(c(O)c1C2=O)C[C@@](O)(C(=O)CO)C[C@@H]3O[C@H]1C[C@H](N)[C@H](O)[C@H](C)O1 [DOXORUBICIN] |  | 219 | 288 | 40.5 |  |  | 
C[C@@H]1C[C@H](O)[C@]2(O)O[C@@H]3C[C@@]4(C=O)[C@@H](CC[C@@H]5[C@@H]4CC[C@]4(C)[C@@H](C6=CC(=O)OC6)C[C@@H](O)[C@]54O)C[C@H]3O[C@@H]2O1 |  | 602 | 547 | 3330 |  |  | 
Cc1c2ccncc2c(C)c2c1[nH]c1ccccc12 [ELLIPTECINE] |  | 812 | 682 | 2230 |  |  | 
C[C@]12CC[C@H](O)C[C@H]1CC[C@@H]1[C@@H]2CC[C@]2(C)[C@@H](C3=CC(=O)OC3)CC[C@]12O [DIGITOXIGENIN] | inactive | 9610 | 8950 | 9770 |  |  | 
COC(=O)[C@@]1(O)C[C@@H](C)O[C@H]1O[C@@H]1C[C@@H]2CC[C@@H]3[C@H](CC[C@]4(C)[C@@H](C5=CC(=O)OC5)CC[C@]34O)[C@@]2(C(=O)O)C[C@H]1O |  |  |  |  | inactive | inactive | inactive
C[C@@H]1C[C@H](O)[C@]2(O)O[C@@H]3C[C@@]4(C=O)[C@@H](CC[C@@H]5[C@@H]4CC[C@]46CO[C@]7(COC(=O)C7)[C@H]4CC[C@]56O)C[C@H]3O[C@@H]2O1 |  | 1290 | 2210 | 3640 |  |  | 
C[C@@H]1C[C@@H](O)[C@]2(O)O[C@@H]3C[C@@]4(C=O)[C@@H](CC[C@@H]5[C@@H]4CC[C@]4(C)[C@@H](C6=CC(=O)OC6)CC[C@]54O)C[C@H]3O[C@@H]2O1 [CALACTIN] | inactive | 41.3 | 20.7 | 345 |  |  | 
